Results as given in patent US11000033B2, “Ketone or oxime compound, and herbicide” (NISSAN CHEMICAL CORPORATION, priority 2014, dated 2021).

Columns and labels:
Assay type in all cases: in vivo
[1] = system: Avena fatua; assay: Test Example 5: herbicidal effect by foliage application, plastic box (symbol I); conditions: 320 g/ha, 3 weeks after application
Outline: (§1)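 Herbicide, formulated as an emulsion and diluted in water, is sprayed onto the aerial parts of 14-day seedlings. These were grown at 25° C. to 30° C. in sterilized diluvial soil; effects are graded after 3 weeks.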

[2] = system: Setaria viridis; assay: Test Example 4: herbicidal effect by soil treatment (symbol G); conditions: application herbicide amount 320 g/ha
Outline: (§2)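 Seeds were sown in sterilized diluvial soil, covered with about 1.5 cm of soil, and the soil surface was sprayed with a water-diluted emulsion of the compound at a predetermined rate. Plants grew in a greenhouse at 25° C. to 30° C.; effects were scored visually 3 weeks after application.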

[3] = system: Echinochloa oryzacola Vasing.; assay: Test Example 2: herbicidal activity, application during weed generation in submerged conditions (symbol A); conditions: Table 23; application herbicide amount 320 g/ha; grade 0-5 by criteria of Test Example 1
Outline: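 Submerged alluvial soil (4 cm) sown with mixed seed; greenhouse 25–30° C. 1–2 leaf: diluted emulsion onto water surface, preset dose. Visual score, 3 wk.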

[4] = system: Echinochloa crus-galli var. crus-galli; assay: Test Example 3: herbicidal effect by foliage application, Wagner pot (symbol H); conditions: application herbicide amount 320 g/ha
Outline: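 Steps: fill pot with alluvial soil; add water to 0.1–0.5 cm depth; sow weed and rice seed; grow 14 days at 25–30 °C; spray diluted emulsion over the leaves; rate effect after 3 weeks.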

[5] = system: corn; assay: Test Example 4: effect on crop by soil treatment (symbol c); conditions: application herbicide amount 320 g/ha
Outline: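 Plants are raised in a greenhouse (25° C. to 30° C.) from spot-sown seed, which sits under about 1.5 cm of sterilized diluvial soil in a box shared with weed species.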

[6] = system: Stellaria media; assay: Test Example 5: herbicidal effect by foliage application, plastic box (symbol P); conditions: 320 g/ha, 3 weeks after application
Outline: as §1

[7] = system: directly sowed rice plant; assay: Test Example 3: effect on crop by foliage application, Wagner pot (symbol b); conditions: application herbicide amount 320 g/ha
Outline: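 Greenhouse culture at 25–30 °C of seeded rice, Cyperus difformis, Leptochloa chinensis and Echinochloa crus-galli var. crus-galli, in alluvial soil held under 0.1–0.5 cm of water in a Wagner pot.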

[8] = system: wheat; assay: Test Example 5: effect on crop by foliage application, plastic box (symbol e); conditions: 320 g/ha, 3 weeks after application
Outline: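 In a plastic box 7 cm deep filled with sterilized diluvial soil, seeds of crops and weeds such as Digitaria ciliaris, Avena fatua and Amaranthus retroflexus are sown in spots and covered with about 1.5 cm of soil before greenhouse growth at 25–30° C.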

[9] = system: Lolium multiflorum Lam.; assay: Test Example 4: herbicidal effect by soil treatment (symbol K); conditions: application herbicide amount 320 g/ha
Outline: as §2

[10] = system: rapeseed; assay: Test Example 4: effect on crop by soil treatment (symbol g); conditions: application herbicide amount 320 g/ha
Outline: (§3)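 Crop seed is sown in spots together with several weed species in a box of sterilized diluvial soil. It is covered by about 1.5 cm of soil and kept in a greenhouse held between 25° C. and 30° C.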

[11] = system: soybean; assay: Test Example 4: effect on crop by soil treatment (symbol d); conditions: application herbicide amount 320 g/ha
Outline: as §3

SMILES | I: Avena fatua, herbicidal effect grade [1] | G: Setaria viridis, herbicidal effect grade [2] | Herbicidal effect grade, A: Echinochloa oryzacola Vasing. [3] | herbicidal effect on H (Echinochloa crus-galli var. crus-galli), grade 0-5 [4] | c: corn, effect on crop grade [5] | P: Stellaria media, herbicidal effect grade [6] | effect on crop b (directly sowed rice plant), grade 0-5 [7] | e: wheat, effect on crop grade [8] | K: Lolium multiflorum Lam., herbicidal effect grade [9] | g: rapeseed, effect on crop grade [10] | d: soybean, effect on crop grade [11]
Cc1cc(C)c(C2=C(O)CC(CC(=O)C3CC3)C2=O)c(C)c1 (stereo not shown) [2-017] | 4 (Herbicidal ratio of 70% or higher and lower than 90%) | 5 (Herbicidal ratio of 90% or more (almost completely withered)) | 5 (Herbicidal ratio of 90% or more (almost completely withered)) | 5 (Herbicidal ratio of 90% or more (almost completely withered)) | 0 (Herbicidal ratio of 5% or lower (almost no effect)) | 0 (Herbicidal ratio of 5% or lower (almost no effect)) | 5 (Herbicidal ratio of 90% or more (almost completely withered)) | 0 (Herbicidal ratio of 5% or lower (almost no effect)) | 5 (Herbicidal ratio of 90% or more (almost completely withered)) | 5 (Herbicidal ratio of 90% or more (almost completely withered)) | 0 (Herbicidal ratio of 5% or lower (almost no effect))
CCCC(=O)C(C(=O)OC)C1CC(O)=C(c2c(C)cc(C)cc2C)C1=O (stereo not shown) [2-020] | 0 (Herbicidal ratio of 5% or lower (almost no effect)) | 5 (Herbicidal ratio of 90% or more (almost completely withered)) | 1 (Herbicidal ratio of 5% or higher and lower than 20%) | 2 (Herbicidal ratio of 20% or higher and lower than 40%) | 3 (Herbicidal ratio of 40% or higher and lower than 70%) | 0 (Herbicidal ratio of 5% or lower (almost no effect)) | 2 (Herbicidal ratio of 20% or higher and lower than 40%) | 0 (Herbicidal ratio of 5% or lower (almost no effect)) | 4 (Herbicidal ratio of 70% or higher and lower than 90%) | 0 (Herbicidal ratio of 5% or lower (almost no effect)) | 0 (Herbicidal ratio of 5% or lower (almost no effect))
CCCC(=O)CC1CC(O)=C(c2c(C)cc(C)cc2C)C1=O (stereo not shown) [2-021] | 3 (Herbicidal ratio of 40% or higher and lower than 70%) | 5 (Herbicidal ratio of 90% or more (almost completely withered)) | 5 (Herbicidal ratio of 90% or more (almost completely withered)) | 5 (Herbicidal ratio of 90% or more (almost completely withered)) | 1 (Herbicidal ratio of 5% or higher and lower than 20%) | 0 (Herbicidal ratio of 5% or lower (almost no effect)) | 5 (Herbicidal ratio of 90% or more (almost completely withered)) | 0 (Herbicidal ratio of 5% or lower (almost no effect)) | 5 (Herbicidal ratio of 90% or more (almost completely withered)) | 1 (Herbicidal ratio of 5% or higher and lower than 20%) | 0 (Herbicidal ratio of 5% or lower (almost no effect))
Cc1cc(C)c(C2=C(O)CC(CC(=O)C(C)(C)C)C2=O)c(C)c1 (stereo not shown) [2-022] | 0 (Herbicidal ratio of 5% or lower (almost no effect)) | 4 (Herbicidal ratio of 70% or higher and lower than 90%) | 1 (Herbicidal ratio of 5% or higher and lower than 20%) | 1 (Herbicidal ratio of 5% or higher and lower than 20%) | 0 (Herbicidal ratio of 5% or lower (almost no effect)) | 0 (Herbicidal ratio of 5% or lower (almost no effect)) | 5 (Herbicidal ratio of 90% or more (almost completely withered)) | 0 (Herbicidal ratio of 5% or lower (almost no effect)) | 4 (Herbicidal ratio of 70% or higher and lower than 90%) | 0 (Herbicidal ratio of 5% or lower (almost no effect)) | 0 (Herbicidal ratio of 5% or lower (almost no effect))
CCC(C)C(=O)CC1CC(O)=C(c2c(C)cc(C)cc2C)C1=O (stereo not shown) [2-024] | 2 (Herbicidal ratio of 20% or higher and lower than 40%) | 5 (Herbicidal ratio of 90% or more (almost completely withered)) | 1 (Herbicidal ratio of 5% or higher and lower than 20%) | 5 (Herbicidal ratio of 90% or more (almost completely withered)) | 0 (Herbicidal ratio of 5% or lower (almost no effect)) | 0 (Herbicidal ratio of 5% or lower (almost no effect)) | 5 (Herbicidal ratio of 90% or more (almost completely withered)) | 0 (Herbicidal ratio of 5% or lower (almost no effect)) | 0 (Herbicidal ratio of 5% or lower (almost no effect)) | 0 (Herbicidal ratio of 5% or lower (almost no effect)) | 0 (Herbicidal ratio of 5% or lower (almost no effect))
Cc1cc(C)c(C2=C(O)CC(CC(=O)CC3CC3)C2=O)c(C)c1 (stereo not shown) [2-026] | 4 (Herbicidal ratio of 70% or higher and lower than 90%) | 5 (Herbicidal ratio of 90% or more (almost completely withered)) | 4 (Herbicidal ratio of 70% or higher and lower than 90%) | 5 (Herbicidal ratio of 90% or more (almost completely withered)) | 1 (Herbicidal ratio of 5% or higher and lower than 20%) | 0 (Herbicidal ratio of 5% or lower (almost no effect)) | 5 (Herbicidal ratio of 90% or more (almost completely withered)) | 0 (Herbicidal ratio of 5% or lower (almost no effect)) | 5 (Herbicidal ratio of 90% or more (almost completely withered)) | 4 (Herbicidal ratio of 70% or higher and lower than 90%) | 0 (Herbicidal ratio of 5% or lower (almost no effect))
Cc1cc(C)c(C2=C(O)CC(CC(=O)C3CCCC3)C2=O)c(C)c1 (stereo not shown) [2-028] | 0 (Herbicidal ratio of 5% or lower (almost no effect)) | 5 (Herbicidal ratio of 90% or more (almost completely withered)) | 3 (Herbicidal ratio of 40% or higher and lower than 70%) | 5 (Herbicidal ratio of 90% or more (almost completely withered)) | 2 (Herbicidal ratio of 20% or higher and lower than 40%) | 0 (Herbicidal ratio of 5% or lower (almost no effect)) | 5 (Herbicidal ratio of 90% or more (almost completely withered)) | 0 (Herbicidal ratio of 5% or lower (almost no effect)) | 5 (Herbicidal ratio of 90% or more (almost completely withered)) | 0 (Herbicidal ratio of 5% or lower (almost no effect)) | 0 (Herbicidal ratio of 5% or lower (almost no effect))
Cc1cc(C)c(C2=C(O)CC(CC(=O)C3CCCCC3)C2=O)c(C)c1 (stereo not shown) [2-030] | 1 (Herbicidal ratio of 5% or higher and lower than 20%) | 5 (Herbicidal ratio of 90% or more (almost completely withered)) | 3 (Herbicidal ratio of 40% or higher and lower than 70%) | 4 (Herbicidal ratio of 70% or higher and lower than 90%) | 1 (Herbicidal ratio of 5% or higher and lower than 20%) | 0 (Herbicidal ratio of 5% or lower (almost no effect)) | 5 (Herbicidal ratio of 90% or more (almost completely withered)) | 0 (Herbicidal ratio of 5% or lower (almost no effect)) | 4 (Herbicidal ratio of 70% or higher and lower than 90%) | 0 (Herbicidal ratio of 5% or lower (almost no effect)) | 0 (Herbicidal ratio of 5% or lower (almost no effect))
